This is an account of results in patent EP3074389B1, “QUINOLINE DERIVATIVES AS BROMODOMAIN INHIBITORS” (Gilead Sciences, Inc., priority 2013, dated 2015).

The target in one assay is BRD4 domain 1 (Homo sapiens, UniProt O60885). Briefly: Kd determination of inhibitors binding to BRD4 domain 1 (Epic label-free platform). The note with it: direct binding to immobilized BRD4 domain 1; tripling dilution series from 20µM; about 1hr equilibrium; rounded to whole number; read-out: Epic Kd BRD41. The essentials: (§1)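 Label-free resonant waveguide (Epic) direct binding to BRD4 domain 1 or domain 2 amine-coupled via EDC/Sulfo-NHS at 150 µg/mL in 20 mM HEPES pH 7. Binding response taken as wavelength shift (pm) between baseline and second read; Kd from fit to a single-site binding isotherm.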

In a further assay the target is BRD4 domain 2 (Homo sapiens, UniProt O60885). Briefly: Kd determination of inhibitors binding to BRD4 domain 2 (Epic label-free platform). Particulars: direct binding to immobilized BRD4 domain 2; tripling dilution series from 20µM; about 1hr equilibrium; rounded to whole number. In short, it runs like this: as §1

One may read the Kd as the concentration at which binding is half-saturated. Turning to `Cc1noc(C)c1-c1cc(S(=O)(=O)NC2CCCC2)c2cc(NCCN(C)C)c(=O)[nH]c2c1` [Compound 88, N-cyclopentyl-3-((2-(dimethylamino)ethyl)amino)-7-(3,5-dimethylisoxazol-4-yl)-2-oxo-1,2-dihydroquinoline-5-sulfonamide], the Kd on BRD4 domain 1 amounted to 1060 nM; on BRD4 domain 2 it was 943 nM.

As for `Cc1noc(C)c1-c1cc(S(=O)(=O)NC2CCCC2)c2cc(NCCN3CCCC3)c(=O)[nH]c2c1` [Compound 89, N-cyclopentyl-7-(3,5-dimethylisoxazol-4-yl)-2-oxo-3-((2-(pyrrolidin-1-yl)ethyl)amino)-1,2-dihydroquinoline-5-sulfonamide], the Kd on BRD4 domain 1 was determined as 881 nM; on BRD4 domain 2 it was 656 nM.

Regarding `Cc1noc(C)c1-c1cc(S(=O)(=O)NC2CCCC2)c2cc(NCCN3CCOCC3)c(=O)[nH]c2c1` [Compound 90, N-cyclopentyl-7-(3,5-dimethylisoxazol-4-yl)-3-((2-morpholinoethyl)amino)-2-oxo-1,2-dihydroquinoline-5-sulfonamide], the Kd came to 652 nM on BRD4 domain 1 and 560 nM at BRD4 domain 2.

Take `Cc1noc(C)c1-c1cc(S(=O)(=O)NC2CCCC2)c2cc(NCCOCCO)c(=O)[nH]c2c1` [Compound 91, N-cyclopentyl-7-(3,5-dimethylisoxazol-4-yl)-3-((2-(2-hydroxyethoxy)ethyl)amino)-2-oxo-1,2-dihydroquinoline-5-sulfonamide]: the values for the Kd at BRD4 domain 1 and on BRD4 domain 2 were 705 nM and 473 nM, respectively.

Take `Cc1noc(C)c1-c1cc(S(=O)(=O)NC2CCCC2)c2cc(NC(CO)CO)c(=O)[nH]c2c1` [Compound 92, N-cyclopentyl-3-((1,3-dihydroxypropan-2-yl)amino)-7-(3,5-dimethylisoxazol-4-yl)-2-oxo-1,2-dihydroquinoline-5-sulfonamide]: the Kd on BRD4 domain 1 worked out at 897 nM; at BRD4 domain 2, 493 nM.

As to `Cc1noc(C)c1-c1cc(S(=O)(=O)NC2CCCC2)c2cc(NCC(O)CO)c(=O)[nH]c2c1` (centres unmarked) [Compound 93, N-cyclopentyl-3-((2,3-dihydroxypropyl)amino)-7-(3,5-dimethylisoxazol-4-yl)-2-oxo-1,2-dihydroquinoline-5-sulfonamide], the figures for the Kd on BRD4 domain 1 and on BRD4 domain 2 were 951 nM and 417 nM, respectively.

Take `Cc1noc(C)c1-c1cc(S(=O)(=O)NC2CCCC2)c2cc(NCCCN)c(=O)[nH]c2c1` [Compound 94, 3-((3-aminopropyl)amino)-N-cyclopentyl-7-(3,5-dimethylisoxazol-4-yl)-2-oxo-1,2-dihydroquinoline-5-sulfonamide]: the values for the Kd on BRD4 domain 1 and on BRD4 domain 2 were 743 nM and 569 nM, respectively.

Consider `Cc1noc(C)c1-c1cc(S(=O)(=O)NC2CCCC2)c2cc(NCCCN(C)C)c(=O)[nH]c2c1` [Compound 95, N-cyclopentyl-3-((3-(dimethylamino)propyl)amino)-7-(3,5-dimethylisoxazol-4-yl)-2-oxo-1,2-dihydroquinoline-5-sulfonamide], for which the Kd on BRD4 domain 1 was 798 nM; at BRD4 domain 2, 503 nM.

For `Cc1noc(C)c1-c1cc(S(=O)(=O)NC2CCCC2)c2cc(NC3COC3)c(=O)[nH]c2c1` [Compound 96, N-cyclopentyl-7-(3,5-dimethylisoxazol-4-yl)-3-(oxetan-3-ylamino)-2-oxo-1,2-dihydroquinoline-5-sulfonamide], the figures for the Kd at BRD4 domain 1 and at BRD4 domain 2 were 467 nM and 433 nM, respectively.

For the compound `Cc1noc(C)c1-c1cc(S(=O)(=O)NC2CCCC2)c2cc(NC(C)(C)CO)c(=O)[nH]c2c1` [Compound 97, N-cyclopentyl-7-(3,5-dimethylisoxazol-4-yl)-3-((1-hydroxy-2-methylpropan-2-yl)amino)-2-oxo-1,2-dihydroquinoline-5-sulfonamide], the Kd was determined as 936 nM on BRD4 domain 1 and 658 nM at BRD4 domain 2.

`Cc1noc(C)c1-c1cc(S(=O)(=O)NC2CCCC2)c2cc(NCC(C)(C)O)c(=O)[nH]c2c1` [Compound 98, N-cyclopentyl-7-(3,5-dimethylisoxazol-4-yl)-3-((2-hydroxy-2-methylpropyl)amino)-2-oxo-1,2-dihydroquinoline-5-sulfonamide]: the values for the Kd at BRD4 domain 1 and on BRD4 domain 2 were 1030 nM and 545 nM, respectively.

On to `Cc1noc(C)c1-c1cc(S(=O)(=O)NC2CCCC2)c2cc(NCC(C)(C)N)c(=O)[nH]c2c1` [Compound 99, 3-((2-amino-2-methylpropyl)amino)-N-cyclopentyl-7-(3,5-dimethylisoxazol-4-yl)-2-oxo-1,2-dihydroquinoline-5-sulfonamide], for which the Kd stood at 671 nM on BRD4 domain 1 and 632 nM at BRD4 domain 2.

`Cc1noc(C)c1-c1cc(S(=O)(=O)N[C@H](C)C(F)(F)F)c2cccnc2c1` [Compound 100, (R)-7-(3,5-dimethylisoxazol-4-trifluoropropan-2-yl)quinoline-5-sulfonamide]: the Kd on BRD4 domain 1 was found to be 8950 nM; at BRD4 domain 2, 11400 nM.
